# Legend:
# [1] = molecular target: T1, adenosine A2a receptor (A2aR) (Homo sapiens, UniProt P29274); test: Inhibition of the adenosine A2a receptor cAMP signaling pathway in CHO-K1/A2aR cells (HTRF); type: cell-based; conditions: for IC50: CHO-K1/A2aR cells, cAMP, Table 1
# T1 construct: expressed in transfected cells; host or cells: CHO-K1
# Text: (§1) Determination of the inhibition activity of the compounds of the present invention on the adenosine A2a receptor (A2aR) cAMP signaling pathway, the adenosine A2b receptor (A2bR) cAMP signaling pathway, the adenosine A1 receptor (A1R) cAMP signaling pathway and the adenosine A3 receptor (A3R) cAMP signaling pathway.
# (§2) The inhibition activity of the compounds of the present invention on the adenosine A2a receptor (A2aR) cAMP signaling pathway, the adenosine A2b receptor cAMP signaling pathway, the adenosine A1 receptor cAMP signaling pathway and the adenosine A3 receptor cAMP signaling pathway was determined by the following method. The experimental method is briefly described as follows:
# 2.1 Adenosine A2a receptor
# CHO-K1/A2aR cells were cultured in DMEM/F12 medium containing 10% fetal bovine serum and 800 μg/ml bleomycin. The cells were digested with the cell separation buffer during the experiment. The cells were resuspended in the balanced salt buffer containing 20 mM HEPES and 0.1% bovine serum albumin and counted, and the cell density was adjusted to 10^6 cells/ml. In the 384-well plate, each well was added with 5 μl of cell suspension, and 2.5 μl of test compound (4× concentration) formulated with the balanced salt buffer containing 20 mM HEPES, 0.1% bovine serum albumin, 54 μM rolipram and 2.7 U/ml adenosine deaminase, and the plate was incubated at room temperature for 30 minutes. Each well was then added with 2.5 μl of […] (4× concentration) formulated with the balanced salt buffer containing 20 mM HEPES, 0.1% bovine serum albumin, 54 μM rolipram and 2.7 U/ml adenosine deaminase, and the plate was incubated at room temperature for 30 minutes. The final concentrations of the compounds were: 10000, 2000, 400, 80, 16, 3.2, 0.64, 0.128, 0.0256, 0.00512, and 0.001024 nM. The final concentration of […] was 20 nM. Intracellular cAMP concentration was detected with the cAMP dynamic 2 kit. cAMP-d2 and Anti-cAMP-Eu-Cryptate were diluted respectively with the cAMP lysis buffer at a ratio of 1:4. Each well was added with 5 μl of diluted cAMP-d2, followed by addition of 5 μl of diluted Anti-cAMP-Eu-Cryptate, and the plate was incubated at room temperature in the dark for 1 hour. The HTRF signal values were read by the PHERAstar multi-function microplate reader.
# [2] = molecular target: T2, adenosine A3 receptor (A3R) (Homo sapiens, UniProt P0DMS8); test: Inhibition of the adenosine A3 receptor cAMP signaling pathway in CHO-K1/A3R cells (HTRF); type: cell-based; conditions: for IC50: CHO-K1/A3R cells, cAMP, forskolin 10 μM, 2Cl-IB-MECA 5 nM; for IC50 ratio (A3R/A2aR): selectivity A3R over A2aR
# T2 construct: expressed in transfected cells; host or cells: CHO-K1
# T2 sequence (P0DMS8 1-318): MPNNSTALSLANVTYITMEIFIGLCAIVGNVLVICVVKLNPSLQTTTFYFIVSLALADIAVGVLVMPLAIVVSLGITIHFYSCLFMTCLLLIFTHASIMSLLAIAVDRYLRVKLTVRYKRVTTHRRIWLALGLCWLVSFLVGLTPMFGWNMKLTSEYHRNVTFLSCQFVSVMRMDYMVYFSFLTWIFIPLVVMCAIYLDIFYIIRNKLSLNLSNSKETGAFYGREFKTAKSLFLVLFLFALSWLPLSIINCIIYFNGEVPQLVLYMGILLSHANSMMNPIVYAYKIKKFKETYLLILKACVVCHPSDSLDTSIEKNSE
# Text: as §1, §2
# 2.4 Adenosine A3 Receptor
# CHO-K1/A3R cells were cultured in DMEM/F12 medium containing 10% fetal bovine serum and 10 μg/ml puromycin. The cells were digested with the cell separation buffer during the experiment. The cells were resuspended in the balanced salt buffer containing 20 mM HEPES and 0.1% bovine serum albumin and counted, and the cell density was adjusted to 5×10^5 cells/ml. In the 384-well plate, each well was added with 12.5 μl of cell suspension, and 6.25 μl of test compound (4× concentration) formulated with the balanced salt buffer containing 20 mM HEPES, 0.1% bovine serum albumin, 54 μM rolipram and 2.7 U/ml adenosine deaminase, and the plate was incubated at room temperature for 30 minutes. Each well was then added with 6.25 μl of forskolin and 2Cl-IB-MECA (4× concentration) formulated with the balanced salt buffer containing 20 mM HEPES, 0.1% bovine serum albumin, 54 μM rolipram and 2.7 U/ml adenosine deaminase, and the plate was incubated at room temperature for 30 minutes. The final concentrations of the compounds were: 100000, 10000, 1000, 100, 10, 1, 0.1 and 0 nM. The final concentrations of forskolin was 10 μM. The final concentration of 2Cl-IB-MECA was 5 nM. Intracellular cAMP concentration was detected with the cAMP dynamic 2 kit. cAMP-d2 and Anti-cAMP-Eu-Cryptate were diluted respectively with the cAMP lysis buffer at a ratio of 1:4. Each well was added with 12.5 μl of diluted cAMP-d2, followed by addition of 12.5 μl of diluted Anti-cAMP-Eu-Cryptate, and the plate was incubated at room temperature in the dark for 1 hour. The HTRF signal values were read by the PHERAstar multi-function microplate reader.
# T1 sequence (P29274 whole entry): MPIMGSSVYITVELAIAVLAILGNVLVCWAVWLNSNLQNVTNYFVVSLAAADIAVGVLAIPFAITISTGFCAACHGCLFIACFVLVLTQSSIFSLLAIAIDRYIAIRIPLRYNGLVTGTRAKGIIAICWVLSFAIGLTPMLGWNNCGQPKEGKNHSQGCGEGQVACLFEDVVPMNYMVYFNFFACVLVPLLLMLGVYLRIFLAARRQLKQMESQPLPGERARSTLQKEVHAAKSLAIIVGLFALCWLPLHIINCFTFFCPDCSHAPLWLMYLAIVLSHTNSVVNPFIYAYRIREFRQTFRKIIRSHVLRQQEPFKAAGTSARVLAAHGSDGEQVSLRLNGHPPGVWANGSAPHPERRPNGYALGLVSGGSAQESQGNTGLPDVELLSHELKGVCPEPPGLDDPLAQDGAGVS
SMILES,IC50 ([1]; NECA 20 nM) [nM],IC50 [2] [nM],IC50 ratio (A3R/A2aR) [2],difference in inhibition activity on the adenosine A2a receptor versus Comparative Example 1 ([1]; compared with Comparative Example 1) [times],IC50 ([1]; 20 nM) [nM]
"[2H]C([2H])([2H])c1ccnc2ccc(-c3nnc(N)nc3-c3ccc(F)cc3)cc12 [Example 22, 5-(4-Fluorophenyl)-6-[4-(trideuteromethyl)-6-quinolinyl]-1,2,4-triazin-3-amine]",0.3,> 10000,>10^4,,
"Cc1ccnc2c(F)cc(-c3nnc(N)nc3-c3ccccc3)cc12 [Example 16, 6-(8-Fluoro-4-methylquinolin-6-yl)-5-phenyl-1,2,4-triazin-3-amine]",0.2,> 10000,>10^4,,
"Cc1ncnc2c(F)cc(-c3nnc(N)nc3-c3ccccc3)cc12 [Example 45, 6-(8-Fluoro-4-methylquinazolin-6-yl)-5-phenyl-1,2,4-triazin-3-amine]",1.2,> 10000,>10^3,,
"Cc1ccnc2c(F)cc(-c3nnc(N)nc3-c3ccc(F)cc3)cc12 [Example 20, 6-(8-Fluoro-4-methylquinolin-6-yl)-5-(4-fluorophenyl)-1,2,4-triazin-3-amine]",1.5,> 10000,>10^3,,
"Cc1ncnc2ccc(-c3nnc(N)nc3-c3ccccc3)cc12 [Example 15, 6-(4-Methylquinazolin-6-yl)-5-phenyl-1,2,4-triazin-3-amine]",0.1,> 10000,>10^4,,
"Cc1ccnc2c(F)cc(-c3nnc(N)nc3-c3ccccc3F)cc12 [Example 31, 6-(8-Fluoro-4-methylquinolin-6-yl)-5-(2-fluorophenyl)-1,2,4-triazin-3-amine]",3.8,> 10000,>10^3,,
"Nc1nnc(-c2cc(F)c3ncccc3c2)c(-c2ccccc2)n1 [Example 2, 6-(8-Fluoroquinolin-6-yl)-5-phenyl-1,2,4-triazin-3-amine]",0.6,> 10000,>10^4,,
"Cc1ccnc2ccc(-c3nnc(N)nc3-c3ccc(F)cc3)cc12 [Example 18, 5-(4-Fluorophenyl)-6-(4-methylquinolin-6-yl)-1,2,4-triazin-3-amine]",0.2,> 10000,>10^4,,
"Nc1nnc(-c2ccc3ncccc3c2)c(-c2ccccc2)n1 [Example 3, 5-Phenyl-6-(quinolin-6-yl)-1,2,4-triazin-3-amine]",0.7,> 10000,>10^4,225,
"Cc1ncnc2ccc(-c3nnc(N)nc3-c3ccc(F)cc3)cc12 [Example 19, 5-(4-Fluorophenyl)-6-(4-methylquinazolin-6-yl)-1,2,4-triazin-3-amine]",,> 10000,>10^4,,0.4
"CCc1ccnc2ccc(-c3nnc(N)nc3-c3ccc(F)cc3)cc12 [Example 44, 6-(4-Ethylquinolin-6-yl)-5-(4-fluorophenyl)-1,2,4-triazin-3-amine]",0.8,> 10000,>10^4,,
"[2H]C([2H])([2H])c1ncnc2ccc(-c3nnc(N)nc3-c3ccc(F)cc3)cc12 [Example 52, 5-(4-Fluorophenyl)-6-(4-(methyl-d3)quinazolin-6-yl)-1,2,4-triazin-3-amine]",,> 10000,>10^4,,0.9
"Cc1ccnc2ccc(-c3nnc(N)nc3-c3ccccc3F)cc12 [Example 17, 5-(2-Fluorophenyl)-6-(4-methylquinolin-6-yl)-1,2,4-triazin-3-amine]",0.5,> 10000,>10^4,,

# Source: patent US11014904B2, “1,2,4-triazine-3-amine derivative, preparation method therefor, and use thereof in medicine” (Jiangsu Hengrui Medicine Co., Ltd., priority 2017, dated 2021)
